Reference: patent publication US11708562B2, “Differentiation of human embryonic stem cells” (Janssen Biotech, Inc., priority 2006, dated 2023)
Several values for one entry are separate records, joined by “and”; a condition that tells them apart may be missing. Equal values may be shown once.

Assays:
[1] = system: human embryonic stem cell line H1 at passage 55; assay: Definitive endoderm on human serum coated plates (real-time PCR); type: cell-based
Experimental: Cultures of the human embryonic stem cell line H1 at passage 55 were grown and differentiated on human serum (Sigma, # H1388, MO) coated plates. 0.5 ml of human serum was added to each well of 6 well tissue culture treated dish, incubated for 1 hr at room temperature, and aspirated before adding human embryonic stem cells. […] These findings parallel our findings for human embryonic stem cells cultured on […]™ or human fibronectin coated plates.

SA002 P38 cells = assay: Differentiation of SA002 ES line on […] to definitive endoderm; type: cell-based, human; conditions: 20 ng/ml Wnt-3a
Excerpt: Expression of CXCR4 is depicted in FIGS. 45A, 45B and 45C: a) AA treatment b) AA+Wnt-3a c) AA+GSK-3B inhibitor.

[2] = system: H7P44 and H9P46 embryonic stem cells; assay: Definitive endoderm on […]: role of Wnt ligands (FACS CXCR4, real-time PCR); type: cell-based, human; conditions: H7 and H9; low serum+AA+/-Wnt ligands
Experimental: In some of the cultures 20 ng/ml Wnt-3a (Catalog #1324-WN-002, R&D Systems, MN), 20 ng/ml Wnt-5a (Catalog #654-WN-010, R&D Systems, MN), 25 ng/ml Wnt-7a (Catalog #3008-WN-025, R&D Systems, MN), or 25 ng/ml Wnt-5b (Catalog #3006-WN-025, R&D Systems, MN) was added throughout the five day treatment. FIGS. 24A and 24B depicts phase contrast images of H9P46 definitive endoderm culture in the presence of high concentration of (a) AA or (b) AA+20 ng/ml Wnt-3a. FIGS. 25A, 25B, 25C and 25D depicts the expression of CXCR4 by FACS at day 5 for H7P44, and H9P46 lines cultured on […]™ (1:30 dilution) and exposed to the DE protocol+Wnt-3a (FIGS. 25B and 25D) and -Wnt-3a (FIGS. 25A and C).

H9 cultures = assay: Definitive endoderm on varying concentrations of […] with Wnt-3a (real-time PCR); type: cell-based, human; conditions: low serum, 100 ng/ml activin A and 20 ng/ml Wnt-3a
Experimental: H9 cells were cultured on plates coated with regular […] at a 1:60 to 1:10 dilution. The plates were coated with […] for 1 hr at room temperature.

H9 embryonic stem cells = assay: Immunofluorescence staining of DE markers +/- Wnt-3a; type: cell-based, human
Excerpt: Day 5 DE cultures of H9 cells were stained according to Example 10 for SOX-17, HNF-3B, GATA-4, N-cadherin, and E-cadherin. All nuclei were counter stained with DAPI.

[3] = system: H9P46 embryonic stem cells; assay: Definitive endoderm on […]: effective dose of Wnt-3a (FACS, PCR, cell number); type: cell-based, human
Experimental: Control cultures were not treated with Wnt-3a. FIG. 27A depicts the expression of CXCR4 by FACS at day 5 in the absence of Wnt-3a, b) 10 ng/ml Wnt-3a, c) 20 ng/ml Wnt-3a and d) 50 ng/ml Wnt-3a. In the absence of Wnt-3a the expression of CXCR4 was very low. […] Real-time PCR results (FIG. 28A) also confirm this finding.
In a separate study, H9p52 cells were plated on 1:30 low growth factor […]™. For the first 2 days of the DE protocol a range of Wnt3A doses was used: 10 ng/ml, 5 ng/ml and 1 ng/ml. […] The number of cells at the end of the experiment is noted in FIG. 28C.

[4] = system: human embryonic stem cell line H9; assay: Cells from […] differentiated on MEFs: role of Wnt-3a (real-time PCR, FACS); type: cell-based
Experimental: Cells from the human embryonic stem cell line H9 cultured on […]™ for at least five passages were seeded onto MEF feeders in ES media.
At day 3 and 5, the cultures were analyzed by real time PCR for SOX-17, SOX-7, Alpha-fetal protein (AFP), CXCR4, Brychyury (Bry), gooscecoid (GSC), HNF-3 beta, GATA4, hTERT and Oct4. AFP and SOX-7 are regarded as visceral endoderm markers while GATA4, HNF-3beta and SOX-17 represent definite endoderm markers and GSC, Bry, and CXCR4 represent markers of primitive streak. hTERT and Oct-4 are markers for self renewal and pluripotency respectively. FACS analysis was also performed at day 3 and 5.

[5] = system: H9P53 embryonic stem cells; assay: Definitive endoderm on […]: combination of Wnt-3a, GSK-3B inhibitor, BMP-4; type: cell-based, human; conditions: Wnt-3A plus GSK inhibitor in the presence of activin A
Excerpt: Results are expressed as fold increase over untreated cells. […] Results are expressed as fold increase over untreated cells.

[6] = system: H9P46-P48 embryonic stem cells; assay: Definitive endoderm on […]: effect of GSK-3B inhibitor (FACS CXCR4, PCR); type: cell-based, human; conditions: 20 ng/ml of Wnt-3a or 100-1000 nM GSK-3B inhibitor
Experimental: In order to confirm that the effect of Wnt-3a was through the Wnt pathway, a GSK-3 inhibitor was used to activate the downstream targets of Wnt, such as beta catenin. […] FIG. 29A depicts the expression of CXCR4 by FACS at day 5 in the absence of Wnt-3a or GSK-3B inhibitor, b)+20 ng/ml Wnt-3a, c)+1000 nM GSK-3B inhibitor IX, d)+500 nM GSK-3B inhibitor IX, e)+100 nM GSK-3B inhibitor IX, f)+10 nM GSK-3B inhibitor IX, g)+100 nM GSK-3B inhibitor IX for days 1-2, and h)+10 nM GSK-3B inhibitor IX for days 1-2.

H9P44 cells = assay: Definitive endoderm on MEFs with growth factor combinations: RT-PCR of definitive endoderm markers (Table V); type: cell-based, human; conditions: H9P44 on MEF
Experimental: H9P44 cells were plated onto 6 well plates previously coated with mitomycin treated mouse embryonic fibroblasts (MEF). Cells were grown until 70 to 80% confluency in ES cell medium consisting of DMEM/F12 (Invitrogen/GIBCO) supplemented with 20% knockout serum replacement, 100 nM MEM nonessential amino acids, 0.5 mM beta-mercaptoethanol, 2 mM L-glutamine (all from Invitrogen/GIBCO) and 8 ng/ml human basic fibroblast growth factor (bFGF) (R&D Systems).
Growth factors were added to increasing concentration of FBS in a stepwise manner as indicated in the following regimen:
All growth factors were purchased from R&D Systems, MN. A detailed description and concentration of growth factors for each treatment group is shown below. • 1. Control—No growth factor added • 2. […] IL-4 (10 ng/ml) • 10. SDF1a (20 ng/ml) • 11. […] BMP2 (100 ng/ml)+BMP-4 (100 ng/ml)+BMP-6 (100 ng/ml)+BMP-7 (100 ng/ml) • 13.
For RT-PCR analysis, cells were analyzed for expression of selected panel of definitive endoderm markers.

[7] = system: human embryonic stem cell line H9; assay: Cytokine array of cell lysates and conditioned media +/- Wnt3a (Table VII); type: cell-based; set-up: unit not given here; conditions: 100 ng/ml Activin A + 10 ng/ml Wnt3a
Experimental: The effect that Wnt-3a treatment has on cytokine expression was analyzed using a protein array. Cells of the human embryonic stem cell line H9 were cultured according to the methods described in Example 15. […] Cell lysates were prepared from cells of each treatment group, with a mammalian cell lysis kit (Sigma-Aldrich, MO). Conditioned media from each treatment group was collected and concentrated. Cytokine array analysis was completed using Cytokine Array panels provided by RayBiotech, GA (http://www.raybiotech.com/). Table VII lists cytokine, growth factor, and receptor expression following normalization of the data and background subtraction. For each panel, positive and negative controls are also included.

[8] = system: H9P49 embryonic stem cells; assay: Pancreatic endoderm under feeder-free conditions: evaluation of retinoic acid analogues (PCR); type: cell-based, human; conditions: 10 μM AM-580
Experimental: At day 5, cells were collected for evaluation by FACS and real-time PCR. […] The resulting definitive endoderm cells at day 5 were exposed to the following media conditions to induce pancreatic endoderm formation: culturing in DMEM/F12 media supplemented with 2% FBS and 1 μM all-trans retinoic acid (RA) (Catalog # R2625, Sigma, MO), or 0.1-10 μM AM-580 (4-[(5,6,7,8-Tetrahydro-5,5,8,8-tetramethyl-2-naphthalenyl)carboxamido]benzoic acid, Catalog # A8843, Sigma, MO), or 0.1-1 μM TTNPB (4-[(E)-2-(5,6,7,8-Tetrahydro-5,5,8,8-tetramethyl-2-naphthalenyl)-1-propenyl]benzoic acid Arotinoid acid, Catalog # T3757, Sigma, MO) for 3 days. AM-580 and TITNPB are retinoic acid analogs with affinity for retinoic acid receptors. RA treatment was followed by additional three day treatment in DMEM/F12 media supplemented with 2% FBS and 20-50 ng/ml bFGF (Catalog # F0291, Sigma, MO). Cultures were harvested and samples of mRNA were collected for analysis.

Compound	expression of definitive endoderm markers compared to activin A only [1]	expression of DE markers (SA002 P38 cells)	expression of definitive endoderm markers (real-time PCR) [2]	expression of CXCR4, GATA4, Goosecoid, HNF-3beta, and SOX-17 genes (H9 cultures)	nuclei stained positive for SOX-17, HNF-3beta and GATA-4 (H9 embryonic stem cells; 20 ng/ml Wnt-3a, day 5)	expression of e-cadherin (H9 embryonic stem cells; addition of Wnt-3a)	number of CXCR4 positive cells (FACS) ([3]; 10-50 ng/ml of Wnt-3a, day 5)	Wnt3a dose sufficient for optimal cell expansion and definitive endoderm differentiation ([3]; H9p52, for 2 days) [ng/mL]	expression of CXCR4 (FACS) ([3]; absence versus 10 and 50 ng/ml Wnt-3a: 10 ng/ml compared with 50 ng/ml)	role in differentiation of cells cultured on MEFs to definitive endoderm [4]	definitive endoderm markers, combination versus each agent by itself [5]	number of CXCR4 positive cells (FACS) [6]	definitive endoderm markers on addition to high dose activin A in low serum (H9P44 cells)	Axl expression ([7]; cell conditioned media)	IL-1beta expression ([7]; cell conditioned media)	IL-1ra expression ([7]; cell conditioned media)	Axl expression ([7]; cell lysate)	IL-1beta expression ([7]; cell lysate)	IL-1ra expression ([7]; cell lysate)	expression of PDX-1 [8]
Wnt-3a	Robust expression	required addition of Wnt-3A for robust expression of DE markers	significant upregulation	led to the expression	significantly larger number	significant loss of expression	significantly increased	10	as effective as	does not appear to play a significant role	do not lead to significant upregulation	significantly increased	no significant upregulation	610.40 and 748.34	316.59 and 278.30	354.23 and 581.75	88.59 and 139.03	352.05 and 312.08	302.68 and 198.48	
CC1(C)CCC(C)(C)c2cc(C(=O)Nc3ccc(C(=O)O)cc3)ccc21 [AM-580, 4-[(5,6,7,8-Tetrahydro-5,5,8,8-tetramethyl-2-naphthalenyl)carboxamido]benzoic acid]																				maintaining a high expression
